# Reference: patent publication US8680153B2, “Method for correcting a lipid imbalance in a subject” (The Royal Institution for the Advancement of …, priority 2005, dated 2014)
# “Also recorded” adds a separate entry of the source.
# Columns and labels:
# alveolar cells = experiment: Alveolar (inflammatory) cells in bronchoalveolar lavage fluid of infected mice; type: in vivo
# Protocol: Mouse Lung Infection. Mice were anaesthetized with a combination of ketamine (7.5 mg/mL) and xylazine (0.5 mg/mL) administered intraperitoneally at a dose of 20 mL/kg of body weight. Once the mouse was successfully anaesthetized, the animal was installed under binoculars (Microscope M650, Wild Leitz, Willowdale, ON) in the vertical position and held on a restraining board by holding the animal by its upper incisor teeth (Guilbault, et al. (2005) supra). The tongue was then gently pulled to the side of the mouth and a 26-G gavage needle was inserted into the mouth and guided through the pharynx gently touching the vocal cords to see the lumen of the trachea; the needle was then introduced into the trachea to reach the lung for the bilateral injection of the 50 microliter inoculum. After inoculation, the animal regained righting reflex within an hour. A final dose of 1×10^6 P. aeruginosa was used for infection using wild-type and Cftr-KO mice. Mice were monitored 3 times daily; the maximum weight loss allowed was 15%. Mice were sacrificed by CO2 overdose.
# Bronchoalveolar Lavage. Circulation was flushed by slow intracardiac infusion of divalent cation-free Hank's balanced salt solution (HBSS; INVITROGEN™, Mississauga, ON). The trachea was cannulated with a 22-gauge intravenous catheter placement unit (CRITIKON®, GE Medical Systems, Tampa, Fla.) connected to two 5 mL syringes via a 3-way stopcock with a rotating collar (Namic U.S.A., Glens Falls, N.Y.). The alveoli of infected mice were washed 3 times with 1.4 mL of divalent cation-free HBSS. The volume of bronchoalveolar lavage fluid recovered was approximately 1.2 mL. […] Cells were resuspended in 0.5 mL of Dulbecco's Modified Eagle Medium (DMEM; INVITROGEN™) supplemented with 10% fetal bovine serum (FBS; Hyclone, Logan, Utah), diluted in Turk's solution and counted using a hematocytometer. The proportions of macrophages, lymphocytes and PMN were calculated after counting approximately 300 alveolar cells on cytospin preparations stained with DIFF-QUICK® stain (American Scientific Products, McGaw Park, Ill.).
# [1] = test system: phospholipid-bound AA and DHA; experiment: Essential fatty acid profile in plasma, biweekly treatment for 4 weeks (8 treatments); type: in vivo, mice
# Protocol: Fenretinide Diet Supplementation. Examples 2 to 6: fenretinide (Sigma-Aldrich, Oakville, ON) powder was resuspended in 95% ethanol and subsequently incorporated in the Peptamen liquid diet. It was protected from light and kept at 4° C. before being given to the mice (5 mg/kg per day per mouse). Mock-treated diets were prepared similarly by adding ethanol to the Peptamen diet but omitting the fenretinide supplementation. The diet was given every morning for 28 consecutive days with specific monitoring of the quantity consumed by the mice in each cage. Examples 7 to 12: fenretinide powder was kindly provided by Dr. Robert Smith (NIH; Bethesda, Md., USA). Fenretinide was resuspended in 95% ethanol to make a 2 μg/μL concentration. Approximately 40 μL of this preparation was incorporated into the Peptamen liquid diet (5 mg/kg per day per mouse). The prepared food containing fenretinide was then stored in the dark at 4° C. for no more than 3 hours prior to being administered to the mice. To ensure that the entire drug dose was consumed, the mice were given 10 mL of fenretinide-treated Peptamen, which represents ⅔ of the daily mouse food consumption, in the late afternoon. The remaining 5 mL of Peptamen (without fenretinide) was given the following morning. Mice were treated twice a week for 4 weeks. During the treatment period each mouse was kept in a separate cage (including WT mice) and was monitored to ensure that the entire amount of Peptamen containing the fenretinide or with out was consumed. The diet for the mock-treated control group was prepared and administered similarly to that described above, by adding the same volume of ethanol to the Peptamen diet but omitting the fenretinide supplementation.
# Fatty Acid Analysis. Minced tissues isolated from mice were immersed in 1 mM BHA in chloroform and methanol (2:1 vol). For plasma samples (mouse and human), 100 μL of plasma was added to 1 mL of BHA. Lipids were then extracted from all samples according to standard methods (Folch, et al. (1957) J. Biol. Chem. 226:497-509). Identification of phospholipids was carried out by thin-layer chromatography extraction (Van Handel & Zilversmit (1957) J. Lab. Clin. Med. 50:152-157). Also, fractionated lipids were dried and resuspended in heptane:methanol:sulfuric acid (5:1:1) for free fatty acid extraction. Diazomethane was used to esterify the fatty acids released and the esters were identified by GC/MS (Hewlett Packard 5880A, WCOT capillary column (Supelco-10, 35 m×0.5 mm, 1 μm thick)) using commercial standards (Sigma-Aldrich).
# P. aeruginosa = experiment: Bacterial load (CFU) in the lungs of infected mice; type: in vivo
# Protocol: P. aeruginosa Inoculum Preparation. In order to establish a model of prolonged lung infection, bacteria-impregnated agar beads were freshly prepared the day before each experiment according to established methods (Guilbault, et al. (2005) Laboratory Animals 39:336-352), and stored at 4° C. overnight. Briefly, the bacteria (P. aeruginosa strain 508) from an overnight culture were grown for approximately 3 hours in a shaking incubator at 37° C., until it reached a mid-log phase. The log-phase bacteria were concentrated and resuspended in 5 mL of Dulbecco's phosphate-buffered saline (PBS; INVITROGEN™, Mississauga, ON). A 5 mL aliquot of the concentrated bacterial broth was added to 52° C. 1.5% trypticase soy agar (DIFCO®, Detroit, Mich.) (agarose beads free of bacteria were prepared using PBS instead of a bacterial suspension). This mixture was quickly added to 52° C. heavy mineral oil and stirred rapidly, first at room temperature for 6 minutes, followed by ice cooling with continuous stirring for 10 minutes. The oil-agar mixture was centrifuged to sediment the beads. The beads were washed with PBS and their size was verified microscopically and only those preparations containing beads predominantly 100-250 micrometers in diameter were used as inoculum. Inoculum was prepared by diluting the beads suspension to 1×10^6 CFUs per 50 μl (injection volume).
# Mouse Lung Infection. Mice were anaesthetized with a combination of ketamine (7.5 mg/mL) and xylazine (0.5 mg/mL) administered intraperitoneally at a dose of 20 mL/kg of body weight. Once the mouse was successfully anaesthetized, the animal was installed under binoculars (Microscope M650, Wild Leitz, Willowdale, ON) in the vertical position and held on a restraining board by holding the animal by its upper incisor teeth (Guilbault, et al. (2005) supra). […] Mice were monitored 3 times daily; the maximum weight loss allowed was 15%. […]
# Lung Homogenates. […] The number of CFU per lung was counted after overnight incubation at 37° C. […]
smiles,measurement,setting,value
"CC1=C(/C=C/C(C)=C/C=C/C(C)=C/C(=O)Nc2ccc(O)cc2)C(C)(C)CCC1 [fenretinide, all-trans-N-(4-hydroxyphenyl) retinamide]",Mean total number of alveolar cells in the lungs,"alveolar cells; Cftr-KO mice, day 3 post-infection (p=0.530 vs mock-treated)",1.1×10^6±1.3×10^6
same,Effect on cells recruited into the lungs of infected mice vs mock-treated,"alveolar cells; day 3 post-infection, wild-type and Cftr-KO, neutrophils, monocytes, lymphocytes",no effect
same,Mean total number of alveolar cells in the lungs,"alveolar cells; wild-type mice, day 3 post-infection (p=0.280 vs mock-treated)",1.2×10^6±1.0×10^6
same,Concentration of phospholipid-bound AA in plasma,"[1]; Cftr-KO mice, 8 treatments, p<0.05",brought down significantly; also recorded: decreased significantly
same,"Phospholipid-bound DHA, increase vs control Cftr-KO","[1]; Cftr-KO mice, plasma, 8 treatments",2 fold
same,"DHA:AA ratio, increase vs untreated Cftr-KO","[1]; Cftr-KO mice, plasma, 8 treatments, p<0.05",2 fold
same,"DHA bound in phospholipids, increase","[1]; WT and Cftr-KO mice, after 4 weeks of biweekly treatments (FIG. 14B legend)",2 fold
same,Decrease of median number of bacteria vs untreated Cftr-KO,"P. aeruginosa; Cftr-KO mice, day 3 post-infection",about 10 fold
same,Median bacterial load in the lungs,"P. aeruginosa; fenretinide-treated Cftr-KO mice, day 3 post-infection, p=0.004 vs untreated",3.8×10^4 CFU/lung
same,Effect on median number of bacteria in the lungs vs untreated infected controls,"P. aeruginosa; wild-type mice, p=0.240",no significant effect
